As a reminder, the IC50 is the point on the concentration scale where inhibition reaches its midpoint.

The target of one series is Nitric oxide synthase 1 (Rattus norvegicus, UniProt P29476). Briefly: Inhibition of recombinant rat nNOS assessed as conversion of L-arginine to citrulline after 30 mins.
The target in the next series is Nitric oxide synthase 3 (Homo sapiens, UniProt P29474). Briefly: Inhibition of eNOS (unknown origin).
A short description of series [1]: Selectivity ratio of IC50 for eNOS (unknown origin) to IC50 for recombinant rat nNOS.
Series [2] is described as follows: Drug metabolism in human liver microsomes after 20 mins. Format: ADME. The note with it: read-out: Drug metabolism.

Nitric oxide synthase 3, sequence (P29474 whole entry, looked up): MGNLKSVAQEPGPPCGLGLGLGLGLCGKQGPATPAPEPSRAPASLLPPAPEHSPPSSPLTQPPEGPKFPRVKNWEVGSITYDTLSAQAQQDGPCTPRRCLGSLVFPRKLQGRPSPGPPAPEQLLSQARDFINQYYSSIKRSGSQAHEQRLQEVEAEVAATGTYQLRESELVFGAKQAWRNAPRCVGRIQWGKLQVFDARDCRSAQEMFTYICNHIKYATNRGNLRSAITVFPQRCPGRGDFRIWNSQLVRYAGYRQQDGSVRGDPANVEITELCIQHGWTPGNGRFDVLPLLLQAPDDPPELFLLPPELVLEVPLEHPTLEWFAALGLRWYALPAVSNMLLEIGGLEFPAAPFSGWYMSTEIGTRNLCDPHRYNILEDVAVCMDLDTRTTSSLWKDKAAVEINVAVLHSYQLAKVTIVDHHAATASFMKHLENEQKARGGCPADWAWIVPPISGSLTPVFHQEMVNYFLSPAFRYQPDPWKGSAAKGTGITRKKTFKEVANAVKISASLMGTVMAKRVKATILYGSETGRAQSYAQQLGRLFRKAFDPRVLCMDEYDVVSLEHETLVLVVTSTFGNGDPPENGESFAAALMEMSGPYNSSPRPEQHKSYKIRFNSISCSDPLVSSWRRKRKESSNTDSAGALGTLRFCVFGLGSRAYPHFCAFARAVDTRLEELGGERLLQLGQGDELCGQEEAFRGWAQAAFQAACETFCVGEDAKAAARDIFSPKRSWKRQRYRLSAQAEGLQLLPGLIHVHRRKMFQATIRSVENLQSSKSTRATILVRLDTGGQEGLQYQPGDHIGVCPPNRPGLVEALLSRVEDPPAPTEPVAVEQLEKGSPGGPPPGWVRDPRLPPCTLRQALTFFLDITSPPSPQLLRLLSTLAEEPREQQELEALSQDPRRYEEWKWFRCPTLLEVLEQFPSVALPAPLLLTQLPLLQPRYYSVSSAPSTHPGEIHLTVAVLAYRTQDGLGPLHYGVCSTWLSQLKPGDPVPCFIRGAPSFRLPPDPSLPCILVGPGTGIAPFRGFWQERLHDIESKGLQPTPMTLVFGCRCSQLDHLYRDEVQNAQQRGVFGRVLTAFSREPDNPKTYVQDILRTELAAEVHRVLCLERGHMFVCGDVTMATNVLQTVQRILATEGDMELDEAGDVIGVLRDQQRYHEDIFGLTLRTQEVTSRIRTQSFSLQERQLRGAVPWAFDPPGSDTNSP
Nitric oxide synthase 1, sequence (P29476 whole entry): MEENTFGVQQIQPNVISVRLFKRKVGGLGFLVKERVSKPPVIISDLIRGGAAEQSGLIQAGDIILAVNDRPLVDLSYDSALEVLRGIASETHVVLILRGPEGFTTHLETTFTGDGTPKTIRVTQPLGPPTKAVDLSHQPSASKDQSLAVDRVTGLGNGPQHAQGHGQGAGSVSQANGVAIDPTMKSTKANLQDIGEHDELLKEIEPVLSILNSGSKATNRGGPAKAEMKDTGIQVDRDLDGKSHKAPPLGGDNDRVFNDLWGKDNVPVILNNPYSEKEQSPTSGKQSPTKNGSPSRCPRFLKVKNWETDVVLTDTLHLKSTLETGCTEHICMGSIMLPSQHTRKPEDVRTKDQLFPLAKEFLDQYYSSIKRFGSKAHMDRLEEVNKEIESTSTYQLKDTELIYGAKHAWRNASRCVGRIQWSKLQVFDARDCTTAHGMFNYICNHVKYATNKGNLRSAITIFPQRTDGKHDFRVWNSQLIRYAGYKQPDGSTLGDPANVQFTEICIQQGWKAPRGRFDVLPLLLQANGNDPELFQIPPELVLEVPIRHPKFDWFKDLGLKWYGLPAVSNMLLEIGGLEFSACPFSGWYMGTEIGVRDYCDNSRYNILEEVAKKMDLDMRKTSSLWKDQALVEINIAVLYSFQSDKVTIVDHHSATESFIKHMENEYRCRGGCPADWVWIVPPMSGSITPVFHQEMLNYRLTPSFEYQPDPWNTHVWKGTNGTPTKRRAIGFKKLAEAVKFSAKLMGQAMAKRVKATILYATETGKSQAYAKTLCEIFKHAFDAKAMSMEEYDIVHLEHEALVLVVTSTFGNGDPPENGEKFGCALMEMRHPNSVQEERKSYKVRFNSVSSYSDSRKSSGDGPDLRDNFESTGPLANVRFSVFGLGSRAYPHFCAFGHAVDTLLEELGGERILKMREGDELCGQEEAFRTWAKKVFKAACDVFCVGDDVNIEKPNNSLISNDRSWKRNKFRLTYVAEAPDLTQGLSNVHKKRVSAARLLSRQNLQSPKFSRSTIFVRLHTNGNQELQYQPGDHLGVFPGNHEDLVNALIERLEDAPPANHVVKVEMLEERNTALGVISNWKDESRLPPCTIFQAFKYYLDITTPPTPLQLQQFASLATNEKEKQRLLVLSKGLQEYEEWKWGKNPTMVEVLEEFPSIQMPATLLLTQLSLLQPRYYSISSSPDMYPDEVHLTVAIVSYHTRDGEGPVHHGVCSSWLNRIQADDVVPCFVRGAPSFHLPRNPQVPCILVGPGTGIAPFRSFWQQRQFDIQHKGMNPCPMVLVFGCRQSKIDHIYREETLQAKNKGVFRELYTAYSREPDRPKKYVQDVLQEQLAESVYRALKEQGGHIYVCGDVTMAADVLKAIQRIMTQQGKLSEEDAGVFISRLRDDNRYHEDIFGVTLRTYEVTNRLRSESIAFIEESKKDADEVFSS

`CCCCNC(=O)N1CCC(O)(c2cccc(NC(=N)c3cccs3)c2)CC1`: the IC50 at Nitric oxide synthase 1 came to 0.694 µM; against Nitric oxide synthase 3 it was 10 µM. The Ratio IC50 in series [1] is 14. Further, in series [2], the metabolised at 20 min worked out at 54%.

On to `N=C(Nc1cccc(C2(O)CCN(C(=O)OCc3ccccc3)CC2)c1)c1cccs1`, for which the IC50 on Nitric oxide synthase 1 was determined as 0.376 µM; against Nitric oxide synthase 3, 60.1 µM. For the same compound, the Ratio IC50 in series [1] worked out at 159. The metabolised at 20 min in series [2] turned out to be 77%.

As for `N=C(Nc1cccc(C2(O)CCN(CCc3ccc(Cl)c(Cl)c3)CC2)c1)c1cccs1`, the IC50 was 0.017 µM at Nitric oxide synthase 1 and 28.3 µM against Nitric oxide synthase 3. Moreover, the Ratio IC50 in series [1] stood at 1660. Besides, the metabolised at 20 min in series [2] is 32%.

For the compound `CCCS(=O)(=O)N1CCC(O)(c2cccc(NC(=N)c3cccs3)c2)CC1`, the IC50 came out at 0.706 µM on Nitric oxide synthase 1 and 18.2 µM against Nitric oxide synthase 3. Also, the Ratio IC50 in series [1] is 26. In addition, the metabolised at 20 min in series [2] turned out to be 25%.

For `N=C(Nc1cccc(C2(O)CCN(CCc3cccc(Cl)c3)CC2)c1)c1cccs1`, the figures for the IC50 on Nitric oxide synthase 1 and at Nitric oxide synthase 3 were 0.131 µM and 57.5 µM, respectively. For the same compound, in series [1], the Ratio IC50 was 438. In addition, the metabolised at 20 min in series [2] was determined as 39%.

On to `N=C(Nc1cccc(C2(O)CCN(CCc3cccc(Cl)c3Cl)CC2)c1)c1cccs1`, for which the IC50 on Nitric oxide synthase 1 is 0.129 µM; against Nitric oxide synthase 3, 100 µM. Further, the Ratio IC50 in series [1] worked out at 775. The metabolised at 20 min in series [2] worked out at 23%.

For `CC(C)S(=O)(=O)N1CCC(O)(c2cccc(NC(=N)c3cccs3)c2)CC1`, the results for the IC50 on Nitric oxide synthase 1 and on Nitric oxide synthase 3 were 0.551 µM and 23 µM, respectively. In series [1], the Ratio IC50 worked out at 42. For the same compound, the metabolised at 20 min in series [2] was found to be 16%.
